# Source: PubChem BioAssay (NCI)
#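 Briefly, cells in 96-well plates were exposed to five compound concentrations for 48 h, and endpoints were estimated by linear interpolation. TGI is the concentration that stops growth completely.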
# Assays:
# Assay in all cases: growth of human tumour cells (NCI), 48 h
# [1] = system: NCI/ADR-RES ovarian
# [2] = system: SF-295 CNS
# [3] = system: HCC-2998 colon
# [4] = system: SK-MEL-5 melanoma
# [5] = system: SF-268 CNS
# [6] = system: COLO 205 colon
# [7] = system: MDA-N
# [8] = system: MOLT-4 leukemia
# [9] = system: LOX IMVI melanoma
# [10] = system: UACC-62 melanoma
# [11] = system: OVCAR-4 ovarian
# [12] = system: MALME-3M melanoma
# [13] = system: HT29 colon
# [14] = system: A549 NSCLC
# [15] = system: PC-3 prostate
# [16] = system: U251 CNS
# [17] = system: HCT-116 colon
# [18] = system: KM12 colon
# [19] = system: EKVX NSCLC
# [20] = system: T-47D breast
# [21] = system: SW-620 colon
# [22] = system: MDA-MB-231 breast
# [23] = system: SN12C renal
# [24] = system: HCT-15 colon
# [25] = system: MDA-MB-435
# [26] = system: NCI-H23 lung
# [27] = system: RPMI-8226 leukemia
# [28] = system: DU-145 prostate
# [29] = system: HS 578T breast
# [30] = system: NCI-H226 lung
# [31] = system: SK-MEL-2 melanoma
# [32] = system: SK-OV-3 ovarian
# [33] = system: SF-539 CNS
# [34] = system: OVCAR-5 ovarian
# [35] = system: M14 melanoma
# [36] = system: SNB-19 CNS
# [37] = system: HOP-62 NSCLC
# [38] = system: UO-31 renal
# [39] = system: MCF7 breast
# [40] = system: CCRF-CEM leukemia
# [41] = system: TK-10 renal
# [42] = system: SK-MEL-28 melanoma
# [43] = system: 786-0 renal
# [44] = system: CAKI-1 renal
# [45] = system: SNB-75 CNS
# [46] = system: BT-549 breast
# [47] = system: NCI-H522 lung
# [48] = system: OVCAR-8 ovarian
# [49] = system: OVCAR-3 ovarian
# [50] = system: RXF 393 renal
# [51] = system: IGROV1 ovarian
# [52] = system: ACHN renal
# [53] = system: SR leukemia
# [54] = system: K-562 leukemia
# [55] = system: HOP-92 NSCLC
# [56] = system: HL-60(TB) leukemia
# [57] = system: A498 renal
# [58] = system: NCI-H460 lung
# [59] = system: UACC-257 melanoma
structure (smiles),measurement,setting,value
COc1ccc(/C=C2\N=C(SC)NC2=O)cc1,TGI,[1],> 100 µM
same,TGI,[2],> 100 µM
same,TGI,[3],> 100 µM
same,TGI,[4],> 100 µM
same,TGI,[5],> 100 µM
same,TGI,[6],> 100 µM
same,TGI,[7],> 100 µM
same,TGI,[8],> 100 µM
same,TGI,[9],> 100 µM
same,TGI,[10],> 100 µM
same,TGI,[11],> 100 µM
same,TGI,[12],> 100 µM
same,TGI,[13],> 100 µM
same,TGI,[14],> 100 µM
same,TGI,[15],> 100 µM
same,TGI,[16],> 100 µM
same,TGI,[17],> 100 µM
same,TGI,[18],> 100 µM
same,TGI,[19],> 100 µM
same,TGI,[20],> 100 µM
same,TGI,[21],> 100 µM
same,TGI,[22],> 100 µM
same,TGI,[23],> 100 µM
same,TGI,[24],> 100 µM
same,TGI,[25],> 100 µM
same,TGI,[26],> 100 µM
same,TGI,[27],> 100 µM
same,TGI,[28],> 100 µM
same,TGI,[29],> 100 µM
same,TGI,[30],> 100 µM
same,TGI,[31],> 100 µM
same,TGI,[32],> 100 µM
same,TGI,[33],> 100 µM
same,TGI,[34],> 100 µM
same,TGI,[35],> 100 µM
same,TGI,[36],> 100 µM
same,TGI,[37],> 100 µM
same,TGI,[38],45.3 µM
same,TGI,[39],> 100 µM
same,TGI,[40],> 100 µM
same,TGI,[41],> 100 µM
same,TGI,[42],> 100 µM
same,TGI,[43],> 100 µM
same,TGI,[44],> 100 µM
same,TGI,[45],> 100 µM
same,TGI,[46],> 100 µM
same,TGI,[47],> 100 µM
same,TGI,[48],> 100 µM
same,TGI,[49],> 100 µM
same,TGI,[50],> 100 µM
same,TGI,[51],> 100 µM
Nc1ccc(S2(c3ccc(N)cc3)C=C(c3ccccc3)C(c3ccccc3)=C2)cc1,TGI,[1],> 100 µM
same,TGI,[2],> 100 µM
same,TGI,[3],> 100 µM
same,TGI,[4],> 100 µM
same,TGI,[5],> 100 µM
same,TGI,[6],> 100 µM
same,TGI,[7],> 100 µM
same,TGI,[8],> 100 µM
same,TGI,[9],> 100 µM
same,TGI,[10],> 100 µM
same,TGI,[11],> 25.2 µM
same,TGI,[12],> 100 µM
same,TGI,[13],> 100 µM
same,TGI,[14],> 100 µM
same,TGI,[52],> 92.5 µM
same,TGI,[15],> 100 µM
same,TGI,[16],> 100 µM
same,TGI,[17],> 100 µM
same,TGI,[18],> 100 µM
same,TGI,[19],> 100 µM
same,TGI,[20],> 100 µM
same,TGI,[53],> 100 µM
same,TGI,[21],> 100 µM
same,TGI,[22],> 100 µM
same,TGI,[23],> 100 µM
same,TGI,[24],> 100 µM
same,TGI,[25],> 71.3 µM
same,TGI,[26],> 100 µM
same,TGI,[27],> 100 µM
same,TGI,[28],> 90.3 µM
same,TGI,[29],> 100 µM
same,TGI,[30],> 63.3 µM
same,TGI,[31],> 88.4 µM
same,TGI,[32],> 59.7 µM
same,TGI,[33],> 100 µM
same,TGI,[54],> 100 µM
same,TGI,[34],> 100 µM
same,TGI,[35],> 100 µM
same,TGI,[36],> 100 µM
same,TGI,[37],> 100 µM
same,TGI,[38],> 90.5 µM
same,TGI,[39],> 100 µM
same,TGI,[40],> 100 µM
same,TGI,[41],> 85.5 µM
same,TGI,[55],> 100 µM
same,TGI,[42],> 100 µM
same,TGI,[43],> 72.1 µM
same,TGI,[56],> 100 µM
same,TGI,[44],> 22.6 µM
same,TGI,[45],> 100 µM
same,TGI,[57],> 90.3 µM
same,TGI,[58],> 100 µM
same,TGI,[59],> 100 µM
same,TGI,[48],98.4 µM
same,TGI,[49],> 100 µM
same,TGI,[50],> 100 µM
same,TGI,[51],> 100 µM
CC1=C(CO)C(=O)O[C@@H]([C@@H](CO)[C@H]2CCC3C4C[C@@H](O)[C@@]5(O)CC=CC(=O)[C@]5(C)C4CC[C@@]32C)C1 (some centres undefined),TGI,[1],> 100 µM
same,TGI,[2],> 100 µM
same,TGI,[3],> 100 µM
same,TGI,[4],> 100 µM
same,TGI,[5],> 100 µM
same,TGI,[6],> 100 µM
same,TGI,[7],> 100 µM
same,TGI,[8],> 100 µM
same,TGI,[9],> 100 µM
same,TGI,[10],> 100 µM
same,TGI,[11],> 100 µM
same,TGI,[12],> 100 µM
same,TGI,[13],> 100 µM
same,TGI,[14],> 100 µM
same,TGI,[52],> 100 µM
same,TGI,[17],> 100 µM
same,TGI,[18],> 100 µM
same,TGI,[19],> 100 µM
same,TGI,[20],> 100 µM
same,TGI,[53],> 100 µM
same,TGI,[21],> 100 µM
same,TGI,[22],> 100 µM
same,TGI,[23],> 100 µM
same,TGI,[24],> 100 µM
same,TGI,[25],> 100 µM
same,TGI,[26],> 100 µM
same,TGI,[27],> 100 µM
same,TGI,[28],> 100 µM
same,TGI,[29],> 100 µM
same,TGI,[30],> 100 µM
same,TGI,[31],> 100 µM
same,TGI,[32],> 100 µM
same,TGI,[33],> 100 µM
same,TGI,[54],> 100 µM
same,TGI,[34],> 100 µM
same,TGI,[35],> 100 µM
same,TGI,[36],> 100 µM
same,TGI,[37],> 100 µM
same,TGI,[38],57.1 µM
same,TGI,[39],> 100 µM
same,TGI,[40],> 100 µM
same,TGI,[41],> 100 µM
same,TGI,[55],> 100 µM
same,TGI,[43],> 100 µM
same,TGI,[56],> 100 µM
same,TGI,[44],> 100 µM
same,TGI,[45],> 100 µM
same,TGI,[57],> 100 µM
same,TGI,[46],> 100 µM
same,TGI,[47],> 100 µM
same,TGI,[59],> 100 µM
same,TGI,[48],> 100 µM
same,TGI,[49],83.9 µM
same,TGI,[50],92.9 µM
same,TGI,[51],> 100 µM
COc1ccc(/C=C/c2cc(OC)cc(=O)o2)cc1,TGI,[1],> 100 µM
same,TGI,[2],> 100 µM
same,TGI,[3],> 100 µM
same,TGI,[4],> 100 µM
same,TGI,[5],> 100 µM
same,TGI,[6],> 100 µM
same,TGI,[7],> 100 µM
same,TGI,[8],> 100 µM
same,TGI,[9],> 100 µM
same,TGI,[10],> 100 µM
same,TGI,[11],> 100 µM
same,TGI,[12],> 100 µM
same,TGI,[13],> 100 µM
same,TGI,[14],> 100 µM
same,TGI,[52],> 100 µM
same,TGI,[15],> 100 µM
same,TGI,[16],76.9 µM
same,TGI,[17],> 100 µM
same,TGI,[18],> 100 µM
same,TGI,[19],> 100 µM
same,TGI,[20],> 100 µM
same,TGI,[53],> 100 µM
same,TGI,[21],> 100 µM
same,TGI,[22],> 100 µM
same,TGI,[23],> 100 µM
same,TGI,[24],> 100 µM
same,TGI,[25],> 100 µM
same,TGI,[26],> 100 µM
same,TGI,[27],> 100 µM
same,TGI,[28],> 100 µM
same,TGI,[29],> 100 µM
same,TGI,[30],> 100 µM
same,TGI,[31],> 100 µM
same,TGI,[32],> 100 µM
same,TGI,[33],46.1 µM
same,TGI,[54],> 100 µM
same,TGI,[34],> 100 µM
same,TGI,[35],> 100 µM
same,TGI,[36],> 100 µM
same,TGI,[37],> 100 µM
same,TGI,[38],> 100 µM
same,TGI,[39],> 100 µM
same,TGI,[40],> 100 µM
same,TGI,[41],> 100 µM
same,TGI,[55],> 100 µM
same,TGI,[42],> 100 µM
same,TGI,[43],> 100 µM
same,TGI,[56],> 100 µM
same,TGI,[44],> 100 µM
same,TGI,[45],44.6 µM
same,TGI,[58],> 100 µM
same,TGI,[59],> 100 µM
same,TGI,[48],> 100 µM
same,TGI,[49],> 100 µM
same,TGI,[50],> 100 µM
same,TGI,[51],> 100 µM
